From patent publication US11040987B2 (TenNor Therapeutics Limited, priority 2019, dated 2021)
Converted amounts (≈) assume the structure as drawn.

Tests used:
A. baumannii ATCC 19606 = assay: MIC determination, broth microdilution, ESKAPE panel; assay type: cell-based; conditions: Acinetobacter baumannii, ATCC19606; iron-depleted cation-adjusted Mueller-Hinton broth, 2,2-dipyridyl 160 μM; 37° C., 18-20 hours; read-out: MIC A. baumannii ATCC 19606
Experimental: (§1) Minimum inhibitory concentration (MIC) is determined by a broth microdilution method according to the recommendation of the Clinical and Laboratory Standards Institute (CLSI) with minor modification. […] Strains of an ESKAPE panel (E. faecium ATCC 700221, S. aureus ATCC 29213, K. pneumoniae ATCC 43816, A. baumannii ATCC 19606, P. aeruginosa ATCC 27853 and Escherichia coli ATCC 25922) were obtained originally from the American Type Culture Collection (ATCC) and used for MIC determinations of compounds. The bacteria inoculum in the test is […].

E. faecium ATCC 700221 = assay: as above; assay type: cell-based; conditions: Enterococcus faecium, ATCC700221; iron-depleted cation-adjusted Mueller-Hinton broth, 2,2-dipyridyl 160 μM; 37° C., 18-20 hours; read-out: MIC E. faecium ATCC 700221
Experimental: as §1

[1] = tested on: Escherichia coli ATCC 25922; assay: as above; assay type: cell-based; conditions: ATCC25922, iron-depleted cation-adjusted Mueller-Hinton broth, 2,2-dipyridyl 160 μM, 37° C., 18-20 hours, read-out: MIC E. coli ATCC 25922
Experimental: as §1

K. pneumoniae ATCC 43816 = assay: as above; assay type: cell-based; conditions: Klebsiella pneumoniae, ATCC43816; iron-depleted cation-adjusted Mueller-Hinton broth, 2,2-dipyridyl 160 μM; 37° C., 18-20 hours; read-out: MIC K. pneumoniae ATCC 43816
Experimental: as §1

P. aeruginosa ATCC 27853 = assay: as above; assay type: cell-based; conditions: Pseudomonas aeruginosa, ATCC27853; iron-depleted cation-adjusted Mueller-Hinton broth, 2,2-dipyridyl 160 μM; 37° C., 18-20 hours; read-out: MIC P. aeruginosa ATCC 27853
Experimental: as §1

S. aureus ATCC 29213 = assay: as above; assay type: cell-based; conditions: Staphylococcus aureus, ATCC29213; iron-depleted cation-adjusted Mueller-Hinton broth, 2,2-dipyridyl 160 μM; 37° C., 18-20 hours; read-out: MIC S. aureus ATCC 29213
Experimental: as §1

A.b TNP 41704 = assay: MIC against A. baumannii clinical isolates, alone and in combination with antibiotics; assay type: cell-based; conditions: for MIC: Acinetobacter baumannii, TNP41704, Compounds alone, read-out: MIC A.b TNP 41704
A.b TNP 41708 = assay: as above; assay type: cell-based; conditions: for MIC: Acinetobacter baumannii, TNP41708, read-out: MIC A.b TNP 41708
Experimental: as §1

A.b TNP 41709 = assay: as above; assay type: cell-based; conditions: for MIC: Acinetobacter baumannii, TNP41709, Compounds alone, read-out: MIC A.b TNP 41709
AmpC_AB = AmpC_AB (Acinetobacter baumannii, UniProt Q6DRA1); assay: β-lactamase inhibition, spectrophotometric assay of nitrocefin hydrolysis; assay type: biochemical
Source text: (§2) Hydrolytic inactivation of the β-lactam antibiotics by β-lactamases is the most widespread drug resistant mechanism and the most challenge clinically among Gram-negative bacterial pathogens. Based on the amino acid sequences, the β-lactamases are grouped into four classes (Ambler classification), of which A, C and D are serine hydrolases and B encompasses metallo-β-lactamases. The IC50 of selected derivatives disclosed herein (identified with reference to example number) plus six reference β-lactam or β-lactamase inhibitors were determined against 7 representative β-lactamases of various classes in a standard spectrophotometric assay of nitrocefin hydrolysis. The assay is performed in 384-well plate. The seven recombinant β-lactamases AmpC_AB (from A. baumannii), AmpC_PA (from P. aeruginosa), KPC-2, NDM-1, IMP-1, VIM-1 and OXA 24/40) are expressed and purified. The reaction buffer for class A, C and D enzymes is 100 mM Na2HPO4—KH2PO4 (pH 7.1) plus 0.005% Tween-20, and for class B enzymes 10 μM ZnSO4 is added. […] The 50 μL of reaction solution composed of 2 pM of β-lactamase, 200 μM of nitrocefin and series of 3-fold dilutions of test or control compounds are added by Cybio SELMA system into 384-plate and incubated in dark at 25° C. for 2 hours. The OD490 is read in MC SpectraMax Plus384 plate reader.

IMP-1 = target: T1, IMP-1 (Serratia marcescens, UniProt P52699); assay: as above; assay type: biochemical; conditions: class B β-lactamase, 10 μM ZnSO4; 200 μM nitrocefin, 25° C., 2 hours; read-out: IC50 IMP-1
T1 construct: made in house
T1 sequence (P52699 19-246, looked up, species assumed): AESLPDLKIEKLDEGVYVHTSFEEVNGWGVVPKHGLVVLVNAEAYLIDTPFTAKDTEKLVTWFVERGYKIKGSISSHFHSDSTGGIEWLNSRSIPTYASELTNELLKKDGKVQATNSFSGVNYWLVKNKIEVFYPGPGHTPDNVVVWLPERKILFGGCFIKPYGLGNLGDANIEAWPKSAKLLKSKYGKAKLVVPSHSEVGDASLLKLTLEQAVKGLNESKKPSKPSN
Source text: as §2

KPC-2 = target: T2, KPC-2 (Klebsiella pneumoniae, UniProt Q9F663); assay: as above; assay type: biochemical; conditions: class A β-lactamase; 200 μM nitrocefin, 25° C., 2 hours; read-out: IC50 KPC-2
T2 construct: made in house
T2 sequence (Q9F663 25-293, looked up, species assumed): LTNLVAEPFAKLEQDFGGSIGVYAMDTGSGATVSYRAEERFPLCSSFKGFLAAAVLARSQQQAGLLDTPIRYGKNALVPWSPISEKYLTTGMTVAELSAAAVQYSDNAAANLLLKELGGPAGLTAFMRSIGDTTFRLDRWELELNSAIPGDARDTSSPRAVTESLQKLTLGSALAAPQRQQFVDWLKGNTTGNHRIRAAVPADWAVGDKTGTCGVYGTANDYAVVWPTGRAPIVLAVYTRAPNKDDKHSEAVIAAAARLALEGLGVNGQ
Source text: as §2

NDM-1 = target: T3, NDM-1 (Klebsiella pneumoniae, UniProt C7C422); assay: as above; assay type: biochemical; conditions: class B β-lactamase, 10 μM ZnSO4; 200 μM nitrocefin, 25° C., 2 hours; read-out: IC50 NDM-1
T3 construct: made in house
T3 sequence (C7C422 29-270, looked up, species assumed): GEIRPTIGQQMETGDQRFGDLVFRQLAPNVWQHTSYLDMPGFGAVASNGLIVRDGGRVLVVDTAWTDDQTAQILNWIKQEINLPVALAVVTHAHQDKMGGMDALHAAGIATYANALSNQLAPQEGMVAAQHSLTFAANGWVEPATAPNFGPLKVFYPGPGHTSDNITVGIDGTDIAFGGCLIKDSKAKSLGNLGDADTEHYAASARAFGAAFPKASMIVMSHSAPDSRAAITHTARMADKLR
Source text: as §2

OXA 24/40 = target: T4, OXA 24/40 (Acinetobacter baumannii, UniProt Q8RLA6); assay: as above; assay type: biochemical
T4 construct: made in house
T4 sequence (Q8RLA6 22-275): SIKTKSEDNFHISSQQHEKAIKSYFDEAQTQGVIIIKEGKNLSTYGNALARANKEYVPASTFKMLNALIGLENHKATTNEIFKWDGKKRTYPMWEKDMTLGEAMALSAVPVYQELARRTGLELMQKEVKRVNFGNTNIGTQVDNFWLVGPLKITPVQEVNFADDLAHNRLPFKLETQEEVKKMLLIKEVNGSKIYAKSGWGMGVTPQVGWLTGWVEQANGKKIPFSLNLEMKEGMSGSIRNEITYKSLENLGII
Source text: as §2

VIM-1 = target: T5, VIM-1 (Pseudomonas aeruginosa, UniProt A0A0F7KYQ8); assay: as above; assay type: biochemical; conditions: class B β-lactamase, 10 μM ZnSO4; 200 μM nitrocefin, 25° C., 2 hours; read-out: IC50 VIM-1
T5 construct: made in house
Source text: as §2

| SMILES | MIC (A. baumannii ATCC 19606) [µg/mL] | MIC (E. faecium ATCC 700221) [µg/mL] | MIC [1] [µg/mL] | MIC (K. pneumoniae ATCC 43816) [µg/mL] | MIC (P. aeruginosa ATCC 27853) [µg/mL] | MIC (S. aureus ATCC 29213) [µg/mL] | MIC (A.b TNP 41704) [µg/mL] | MIC A.b TNP 41704 (A.b TNP 41704; Compounds + meropenem (1:1)) [µg/mL] | MIC A.b TNP 41704 (A.b TNP 41704; Compounds + sulbactam (1:1)) [µg/mL] | MIC (A.b TNP 41708) [µg/mL] | MIC A.b TNP 41708 (A.b TNP 41708; Compounds + meropenem (1:1)) [µg/mL] | MIC A.b TNP 41708 (A.b TNP 41708; Compounds + sulbactam (1:1)) [µg/mL] | MIC (A.b TNP 41709) [µg/mL] | MIC A.b TNP 41709 (A.b TNP 41709; Compounds + meropenem (1:1)) [µg/mL] | MIC A.b TNP 41709 (A.b TNP 41709; Compounds + sulbactam (1:1)) [µg/mL] | also measured |
| --- | --- | --- | --- | --- | --- | --- | --- | --- | --- | --- | --- | --- | --- | --- | --- | --- |
| C[C@]1(/C=N/NC(=O)Cc2ccc(O)c(O)c2)[C@H](C(=O)O)N2C(=O)C[C@H]2S1(=O)=O [Example 20, (2S,3R,5R)-3-((E)-(2-(2-(3,4-dihydroxyphenyl)acetyl)hydrazono)methyl)-3-methyl-7-oxo-4-thia-1-azabicyclo[3.2.0]heptane-2-carboxylic acid 4,4-dioxide] | 64 (≈ 156 µM) | > 128 | > 128 | > 128 | > 128 | 32 (≈ 77.8 µM) | > 128 | 8 | 4 | > 128 | 8 | 8 | > 128 | 8 | 16 |  |
| C[C@@H](O)[C@H]1C(=O)N2C(C(=O)O)=C(S[C@@H]3CN[C@H](C(=O)N(C)C)C3)[C@H](C)[C@H]12 [Meropenem, reference compound] | 1 (≈ 2.61 µM) | > 128 | < 0.06 | < 0.06 | 0.5 (≈ 1.3 µM) | 0.125 (≈ 0.326 µM) | 64 |  |  | 128 |  |  | 128 |  |  |  |
| C[C@]1(Cn2ccnn2)[C@H](C(=O)O)N2C(=O)C[C@H]2S1(=O)=O [Tazobactam, reference compound] |  |  |  |  |  |  |  |  |  |  |  |  |  |  |  | IC50 (AmpC_AB): 23.8 µM; IC50 (IMP-1): > 200 µM; IC50 (KPC-2): 90.2 µM; IC50 (NDM-1): > 200 µM; IC50 (OXA 24/40): 123 µM; IC50 (VIM-1): > 200 µM |
| C[C@]1(c2cc(C(=O)c3ccc(O)c(O)c3)on2)[C@H](C(=O)O)N2C(=O)C[C@H]2S1(=O)=O [Example 112, (2S,3R,5R)-3-(5-(3,4-dihydroxybenzoyl)isoxazol-3-yl)-3-methyl-7-oxo-4-thia-1-azabicyclo[3.2.0]heptane-2-carboxylic acid 4,4-dioxide] | 32 (≈ 75.8 µM) | > 64 | > 64 | > 64 | > 64 | > 64 | > 64 | 16 | 2 | > 64 | 16 | 8 | > 64 | 8 | 2 |  |
| C[C@]1(/C=N/OCCNC(=O)c2ccc(O)c(O)c2Cl)[C@H](C(=O)O)N2C(=O)C[C@H]2S1(=O)=O [Example 118, (2S,3R,5R)-3-((E)-((2-(2-chloro-3,4-dihydroxybenzamido)ethoxy)imino)methyl)-3-methyl-7-oxo-4-thia-1-azabicyclo[3.2.0]heptane-2-carboxylic acid 4,4-dioxide] | > 128 | > 128 | > 128 | > 128 | > 128 | > 128 | > 128 | 128 | 16 | > 128 | >128 | >128 | > 128 | >128 | >128 |  |
